Article PMC9476189 (ACS Omega, 2022)
“Also recorded” adds a separate entry of the source.

What was measured:
α-glucosidase = α-glucosidase (Saccharomyces cerevisiae, UniProt P53341); experiment: α-Glucosidase assay; assay type: biochemical; conditions: for α-glucosidase inhibition, inhibition (%) at 0.5 mM / IC50: mean ± SEM, triplicate; for IC50: read-out: α-glucosidase inhibition, IC50
LOX = target: T1, LOX (Glycine max, UniProt P08170); experiment: Lipoxygenase assay; assay type: biochemical; conditions: mean ± SEM, triplicate
T1 sequence (P08170 1-839): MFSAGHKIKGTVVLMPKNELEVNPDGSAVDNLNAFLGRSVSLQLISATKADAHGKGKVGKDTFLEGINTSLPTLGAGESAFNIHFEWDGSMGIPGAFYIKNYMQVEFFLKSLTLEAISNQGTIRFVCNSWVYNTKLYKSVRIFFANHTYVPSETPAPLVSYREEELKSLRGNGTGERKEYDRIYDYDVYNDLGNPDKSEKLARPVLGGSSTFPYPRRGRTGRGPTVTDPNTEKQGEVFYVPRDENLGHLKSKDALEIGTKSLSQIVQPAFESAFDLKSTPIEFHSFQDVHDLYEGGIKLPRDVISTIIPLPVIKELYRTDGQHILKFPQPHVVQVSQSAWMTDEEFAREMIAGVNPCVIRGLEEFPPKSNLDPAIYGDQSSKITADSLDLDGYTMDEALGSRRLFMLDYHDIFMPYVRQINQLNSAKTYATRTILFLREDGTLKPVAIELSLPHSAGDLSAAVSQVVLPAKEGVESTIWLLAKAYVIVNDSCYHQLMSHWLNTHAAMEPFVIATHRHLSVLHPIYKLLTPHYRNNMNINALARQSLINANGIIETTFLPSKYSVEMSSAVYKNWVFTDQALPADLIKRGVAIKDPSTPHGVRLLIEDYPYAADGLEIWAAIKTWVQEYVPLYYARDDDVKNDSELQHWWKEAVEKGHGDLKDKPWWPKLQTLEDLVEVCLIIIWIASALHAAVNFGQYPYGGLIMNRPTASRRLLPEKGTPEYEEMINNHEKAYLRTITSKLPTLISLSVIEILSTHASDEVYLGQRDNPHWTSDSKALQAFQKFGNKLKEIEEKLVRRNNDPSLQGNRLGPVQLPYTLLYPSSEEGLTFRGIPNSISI

AChE = AChE (Homo sapiens, UniProt P22303); conditions: for AChE inhibition, inhibition (%) at 0.5 mM / IC50: mean ± SEM, triplicate; for IC50: read-out: AChE inhibition, IC50
urease = urease (Canavalia ensiformis, UniProt P07374); conditions: mean ± SEM, triplicate; for IC50: read-out: urease inhibition, IC50
BChE = BChE (Homo sapiens, UniProt P06276); conditions: mean ± SEM, triplicate; for IC50: read-out: BChE inhibition, IC50
Chain of BChE (P06276 29-602, species assumed): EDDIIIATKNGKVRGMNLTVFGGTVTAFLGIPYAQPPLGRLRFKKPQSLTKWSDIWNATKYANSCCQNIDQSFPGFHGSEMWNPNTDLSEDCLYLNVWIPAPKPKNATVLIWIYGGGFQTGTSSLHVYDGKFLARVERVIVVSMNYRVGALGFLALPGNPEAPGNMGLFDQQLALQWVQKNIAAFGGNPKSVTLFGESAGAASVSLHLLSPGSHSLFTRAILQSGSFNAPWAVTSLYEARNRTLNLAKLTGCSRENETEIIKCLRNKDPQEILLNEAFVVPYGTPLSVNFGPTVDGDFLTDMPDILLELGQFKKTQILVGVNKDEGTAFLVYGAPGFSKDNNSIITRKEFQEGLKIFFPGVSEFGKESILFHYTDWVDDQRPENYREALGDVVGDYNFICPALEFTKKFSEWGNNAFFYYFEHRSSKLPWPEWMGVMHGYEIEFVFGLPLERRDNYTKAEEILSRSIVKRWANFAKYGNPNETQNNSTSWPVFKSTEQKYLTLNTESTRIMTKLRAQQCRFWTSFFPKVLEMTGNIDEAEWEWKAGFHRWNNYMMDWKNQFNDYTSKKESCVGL

Chain of α-glucosidase (P53341 whole entry): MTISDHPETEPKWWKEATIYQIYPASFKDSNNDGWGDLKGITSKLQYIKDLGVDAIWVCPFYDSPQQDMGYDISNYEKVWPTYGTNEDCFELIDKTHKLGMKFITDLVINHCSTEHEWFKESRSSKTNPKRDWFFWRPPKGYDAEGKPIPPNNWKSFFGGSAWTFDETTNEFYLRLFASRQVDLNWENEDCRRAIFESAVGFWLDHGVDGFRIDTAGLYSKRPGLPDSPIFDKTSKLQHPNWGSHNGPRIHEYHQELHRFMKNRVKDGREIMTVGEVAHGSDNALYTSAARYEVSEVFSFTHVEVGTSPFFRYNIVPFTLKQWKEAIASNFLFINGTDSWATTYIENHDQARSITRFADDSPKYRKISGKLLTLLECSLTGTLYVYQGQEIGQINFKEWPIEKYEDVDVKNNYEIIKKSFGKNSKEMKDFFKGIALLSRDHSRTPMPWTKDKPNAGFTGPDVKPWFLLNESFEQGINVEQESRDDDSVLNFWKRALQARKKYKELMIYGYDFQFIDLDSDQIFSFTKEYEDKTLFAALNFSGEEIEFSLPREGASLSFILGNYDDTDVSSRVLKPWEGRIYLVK
Chain of AChE (P22303 32-614): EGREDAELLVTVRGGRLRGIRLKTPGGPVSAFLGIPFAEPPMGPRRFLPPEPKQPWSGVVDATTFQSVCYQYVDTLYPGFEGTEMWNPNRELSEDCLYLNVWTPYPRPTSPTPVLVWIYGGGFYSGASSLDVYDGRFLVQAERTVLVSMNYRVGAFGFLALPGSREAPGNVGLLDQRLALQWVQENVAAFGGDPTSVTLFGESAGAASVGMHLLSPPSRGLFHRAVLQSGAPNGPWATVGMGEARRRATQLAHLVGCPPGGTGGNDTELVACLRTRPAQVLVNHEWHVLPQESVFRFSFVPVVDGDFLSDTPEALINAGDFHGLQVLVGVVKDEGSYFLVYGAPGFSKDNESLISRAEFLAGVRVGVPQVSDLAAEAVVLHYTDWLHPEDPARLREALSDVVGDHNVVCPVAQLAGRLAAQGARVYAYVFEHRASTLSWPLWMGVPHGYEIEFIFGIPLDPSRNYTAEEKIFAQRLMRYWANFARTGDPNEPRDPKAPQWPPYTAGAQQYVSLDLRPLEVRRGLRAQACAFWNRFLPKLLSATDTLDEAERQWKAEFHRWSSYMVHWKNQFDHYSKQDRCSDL
Chain of urease (P07374 whole entry, looked up): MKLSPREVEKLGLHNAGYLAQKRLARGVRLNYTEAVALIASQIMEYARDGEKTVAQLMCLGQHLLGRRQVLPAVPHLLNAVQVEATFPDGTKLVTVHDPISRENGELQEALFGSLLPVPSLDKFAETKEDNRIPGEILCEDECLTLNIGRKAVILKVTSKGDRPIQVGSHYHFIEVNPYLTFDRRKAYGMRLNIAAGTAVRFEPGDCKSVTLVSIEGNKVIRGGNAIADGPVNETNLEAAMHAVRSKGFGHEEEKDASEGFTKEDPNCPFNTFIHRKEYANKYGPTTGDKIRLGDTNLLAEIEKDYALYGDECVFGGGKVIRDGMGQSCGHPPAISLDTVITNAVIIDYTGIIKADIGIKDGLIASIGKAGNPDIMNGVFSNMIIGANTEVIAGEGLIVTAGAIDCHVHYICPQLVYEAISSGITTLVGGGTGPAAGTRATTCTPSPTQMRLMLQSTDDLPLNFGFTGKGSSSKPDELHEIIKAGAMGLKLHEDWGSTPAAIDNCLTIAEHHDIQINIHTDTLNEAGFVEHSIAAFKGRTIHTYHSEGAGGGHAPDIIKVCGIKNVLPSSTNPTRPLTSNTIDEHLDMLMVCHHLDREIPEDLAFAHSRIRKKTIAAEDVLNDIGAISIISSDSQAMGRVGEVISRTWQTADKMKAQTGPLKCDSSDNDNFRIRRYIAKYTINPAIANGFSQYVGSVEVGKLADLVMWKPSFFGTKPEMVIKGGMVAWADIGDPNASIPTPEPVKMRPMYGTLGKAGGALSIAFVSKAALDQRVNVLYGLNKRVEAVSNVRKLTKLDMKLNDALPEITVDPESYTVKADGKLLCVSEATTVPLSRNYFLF

| SMILES | activity against α-glucosidase enzyme (in words) (α-glucosidase) | α-glucosidase inhibition, inhibition (%) at 0.5 mM (α-glucosidase) | IC50 (α-glucosidase) | LOX inhibition, inhibition (%) at 0.25 mM (LOX) | AChE inhibition, inhibition (%) at 0.5 mM (AChE) | IC50 (AChE) | urease inhibition, inhibition (%) at 0.25 mM (urease) | BChE inhibition, inhibition (%) at 0.5 mM (BChE) | IC50 (urease) | activity against AChE enzyme (in words) (AChE) | IC50 (BChE) | IC50 (LOX; read-out: LOX inhibition, IC50) |
| --- | --- | --- | --- | --- | --- | --- | --- | --- | --- | --- | --- | --- |
| CCc1cccc(C)c1NC(=O)CSc1nnc(C2CCN(S(=O)(=O)c3ccc(C)cc3)CC2)n1C [Compound 12n, 1-(4-toluenesulfonyl)-4-{3-[N-(2-ethyl-6-methylphenyl)-2-ethanamoylthio]-4-methyl-4H-1,2,4-triazol-5-yl} piperidine] | excellent activity; also recorded: most active compound | 92.65 ± 1.64% | 29.4 ± 1.32 µM | 35.65 ± 0.49% | 61.53 ± 0.65% | 328.1 ± 0.45 µM | 32.85 ± 1.39% | 36.24 ± 0.59% | – | – | – | – |
| Cc1ccc(S(=O)(=O)N2CCC(c3nnc(SCC(=O)Nc4ccccc4C)n3C)CC2)cc1 [Compound 12c, 1-(4-toluenesulfonyl)-4-{3-[N-(2-methylphenyl)-2-ethanamoylthio]-4-methyl-4H-1,2,4-triazol-5-yl} piperidine] | – | 72.45 ± 1.75% | 327.8 ± 1.57 µM | 36.47 ± 0.76% | 82.36 ± 0.67% | 134.6 ± 0.53 µM | 75.45 ± 1.72% | 37.83 ± 0.42% | 163.8 ± 1.45 µM | – | – | – |
| COc1ccccc1NC(=O)CSc1nnc(C2CCN(S(=O)(=O)c3ccc(C)cc3)CC2)n1C [Compound 12g, 1-(4-toluenesulfonyl)-4-{3-[N-(2-methoxyphenyl)-2-ethanamoylthio]-4-methyl-4H-1,2,4-triazol-5-yl} piperidine] | – | 71.45 ± 1.73% | 267.4 ± 1.52 µM | 41.55 ± 0.51% | 79.24 ± 0.89% | 149.8 ± 0.67 µM | 42.87 ± 1.51% | 24.72 ± 0.56% | – | – | – | – |
| Cc1ccc(NC(=O)CSc2nnc(C3CCN(S(=O)(=O)c4ccc(C)cc4)CC3)n2C)cc1 [Compound 12e, 1-(4-toluenesulfonyl)-4-{3-[N-(4-methylphenyl)-2-ethanamoylthio]-4-methyl-4H-1,2,4-triazol-5-yl} piperidine] | – | 72.75 ± 1.58% | 314.6 ± 1.24 µM | 48.36 ± 0.43% | 87.43 ± 0.77% | 97.86 ± 0.65 µM | 39.26 ± 1.43% | 96.47 ± 0.76% | – | excellent activity | 0.053 µM | – |
| Cc1ccc(S(=O)(=O)N2CCC(c3nnc(SCC(=O)NC4CCCCC4)n3C)CC2)cc1 [Compound 12a, 1-(4-toluenesulfonyl)-4-[3-(N-cyclohexyl-2-ethanamoylthio)-4-methyl-4H-1,2,4-triazol-5-yl] piperidine] | – | 87.25 ± 1.65% | 135 ± 1.39 µM | 39.47 ± 0.82% | 52.37 ± 0.78% | 476.3 ± 0.57 µM | 25.34 ± 1.42% | 21.93 ± 0.62% | – | – | – | – |
| Cc1ccc(S(=O)(=O)N2CCC(c3nnc(SCC(=O)Nc4cccc(C)c4)n3C)CC2)cc1 [Compound 12d, 1-(4-Toluenesulfonyl)-4-{3-[N-(3-methylphenyl)-2-ethanamoylthio]-4-methyl-4H-1,2,4-triazol-5-yl}{Kumari, 2021 #63} piperidine] | excellent activity | 91.52 ± 1.43% | 36.7 ± 1.24 µM | 68.34 ± 0.82% | 98.78 ± 0.78% | 0.73 ± 0.54 µM | 98.22 ± 1.65% | 95.29 ± 0.74% | 19.4 ± 1.28 µM | excellent activity | – | 32.6 ± 0.42 µM |
| Cc1ccc(S(=O)(=O)N2CCC(c3nnc(SCC(=O)Nc4cc(C)cc(C)c4)n3C)CC2)cc1 [Compound 12m, 1-(4-toluenesulfonyl)-4-{3-[N-(3,5-dimethylphenyl)-2-ethanamoylthio]-4-methyl-4H-1,2,4-triazol-5-yl} piperidine] | – | 87.21 ± 1.46% | 142.7 ± 1.23 µM | 37.45 ± 0.37% | 92.73 ± 0.87% | 0.42 ± 0.67 µM | 98.65 ± 1.67% | 91.25 ± 0.45% | 14.3 ± 1.27 µM | excellent activity | 0.038 µM | – |
| Cc1ccc(S(=O)(=O)N2CCC(c3nnc(SCC(=O)Nc4cccc(C)c4C)n3C)CC2)cc1 [Compound 12i, 1-(4-toluenesulfonyl)-4-{3-[N-(2,3-dimethylphenyl)-2-ethanamoylthio]-4-methyl-4H-1,2,4-triazol-5-yl} piperidine] | – | 31.53 ± 1.37% | – | 24.12 ± 0.59% | 82.51 ± 0.85% | 117.4 ± 0.64 µM | 75.82 ± 1.79% | 36.47 ± 0.75% | 143 ± 1.52 µM | – | – | – |
| Cc1ccc(S(=O)(=O)N2CCC(c3nnc(SCC(=O)Nc4c(C)cccc4C)n3C)CC2)cc1 [Compound 12l, 1-(4-toluenesulfonyl)-4-{3-[N-(2,6-dimethylphenyl)-2-ethanamoylthio]-4-methyl-4H-1,2,4-triazol-5-yl} piperidine] | – | 53.67 ± 1.67% | 463.3 ± 1.36 µM | 45.29 ± 0.56% | 62.25 ± 0.86% | 287.7 ± 0.63 µM | 46.19 ± 1.76% | 41.87 ± 0.63% | – | – | – | – |
